Legend:
Type in all cases: physicochemical
[1] = photochromic response of test squares on an optical bench (sensitivity, saturation optical density, bleach rate); conditions: for ΔOD @ Saturation (Band A) / ΔOD @ Saturation (Band B): UV exposure 15 minutes; for ΔOD @ Saturation (Band A) / Sensitivity ΔOD/MIN (Band A) / ΔOD @ Saturation (Band B) / Sensitivity ΔOD/MIN (Band B): 72° F. (22.2° C.), polymer test square; for Sensitivity ΔOD/MIN (Band A) / Sensitivity ΔOD/MIN (Band B): first five (5) seconds of UV exposure, expressed per minute; for Bleach Rate T 1/2: measured at band B, room temperature (72° F., 22.2° C.) after removal of activating light
Description: (§1) Testing was done with the photochromic compounds described in Examples 1 through 20 and Comparative Examples 1 through 3 in the following manner. A quantity of photochromic compound calculated to yield a 1.5×10^-3 molal solution was added to a flask containing 50 grams of a monomer blend of 4 parts ethoxylated bisphenol A dimethacrylate (BPA 2EO DMA), 1 part poly(ethylene glycol) 600 dimethacrylate, and 0.033 weight percent 2,2'-azobis(2-methyl propionitrile) (AIBN). The photochromic compound was dissolved into the monomer blend by stirring and gentle heating, if necessary. After a clear solution was obtained, it was poured into a flat sheet mold having the interior dimensions of 2.2 mm×6 inches (15.24 cm)×6 inches (15.24 cm). The mold was sealed and placed in a horizontal air flow, programmable oven programmed to increase the temperature from 40° C. to 95° C. over a 5 hour interval, hold the temperature at 95° C. for 3 hours, lower it to 60° C. over a 2 hour interval and then hold it at 60° C. for 16 hours. After the mold was opened, the polymer sheet was cut using a diamond blade saw into 2 inch (5.1 centimeters) test squares.
(§2) The photochromic test squares of Part A were tested for photochromic response rates on an optical bench. Prior to testing on the optical bench, the photochromic test squares were exposed to 365 nanometer ultraviolet light for about 15 minutes to activate the photochromic compounds and then placed into a 76° C. oven for about 15 minutes to bleach the photochromic compounds. The test squares were then cooled to room temperature, exposed to fluorescent room lighting for at least 2 hours and then kept covered for at least 2 hours prior to testing on an optical bench maintained at 72° F. (22.2° C.). The bench was fitted with a 250 watt Xenon arc lamp, a remote controlled shutter, a copper sulfate bath acting as a heat sink for the arc lamp, a Schott WG-320 nm cut-off filter which removes short wavelength radiation; neutral density filter(s) and a sample holder in which the square to be tested was inserted. The power output of the optical bench, i.e., the dosage of light that the sample lens would be exposed to, was calibrated with a photochromic test square used as a reference standard. […] The UV-A detector was placed into the sample holder and the light output was measured. Adjustments to the power output were made by increasing or decreasing the lamp wattage or by adding or removing neutral density filters in the light path.
A monitoring, collimated beam of light from a tungsten lamp was passed through the square at a small angle (approximately 30°) normal to the square. After passing through the square, the light from the tungsten lamp was directed to a detector through Spectral Energy Corp. GM-200 monochromator set at the previously determined visible lambda max of the photochromic compound being measured. The output signals from the detector were processed by a radiometer.
(§3) Change in optical density (ΔOD) was determined by inserting a test square in the bleached state into the sample holder, adjusting the transmittance scale to 100%, opening the shutter from the Xenon lamp to provide ultraviolet radiation to change the test square from the bleached state to an activated (i.e., darkened) state, measuring the transmittance in the activated state, and calculating the change in optical density according to the formula: ΔOD=log(100/% Ta), where % Ta is the percent transmittance in the activated state and the logarithm is to the base 10.
The ΔOD/Min, which represents the sensitivity of the photochromic compound's response to UV light, was measured over the first five (5) seconds of UV exposure, then expressed on a per minute basis. The saturation optical density (ΔOD@ Saturation) was taken under identical conditions as the ΔOD/Min, except UV exposure was continued for 15 minutes. […]

[2] = lambda max (Vis) of activated photochromic test squares in a Varian Cary 3 uv-visible spectrophotometer; conditions: activated form in test square
Description: as §1
The lambda max (Vis) is the wavelength in the visible spectrum at which the maximum absorption of the activated (colored) form of the photochromic compound in a test square occurs. The lambda max (Vis) wavelengths reported in Table 1 were determined by testing the photochromic test square polymerizates of Part A in a Varian Cary 3 uv-visible spectrophotometer. The bleach rate (T 1/2) is the time interval in seconds for the absorbance of the activated form of the photochromic compound in the test squares to read one half the highest absorbance at room temperature (72° F., 22.2° C.) after removal of the source of activating light.
For each lambda max visible, the corresponding optical density (Δ OD/Min and Δ OD at saturation) for the desired compounds of the Examples and Comparative Examples are tabulated in Table 1 for the two bands (A and B) of peak absorption for each compound. Table 1 also includes the bleach rate (T 1/2) for each of the compounds as measured at band B. The ratings of the Relative Δ OD at Saturation Test for the bands A and B of each of the Examples and Comparative Examples are calculated as follows: Δ OD at saturation (Band A)/Δ OD at saturation (Band B)×100.

[3] = Relative ΔOD at Saturation Test; conditions: ΔOD at saturation (Band A)/ΔOD at saturation (Band B)×100
Description: In accordance with the present invention, it has now been discovered that certain novel indeno[2,1-f]naphtho[1,2-b]pyrans having two absorption bands in the activated (colored) state, an acceptable fade rate, high activated intensity, a high coloration rate and a rating of 80 or higher in the Relative ΔOD at Saturation Test may be prepared. The Relative ΔOD at Saturation Test is described in Example 21. The ratings of the test are defined herein as the result obtained when the optical density of band "A" is divided by the optical density of band "B" and multiplied by 100. It is believed that compounds having a rating of 80 or higher are most valuable for formulating neutral grays, greens and browns for commercial photochromic ophthalmic eyeware.
as §1, §2
as §3, with “10. […]” for “10.”

ΔOD @ Saturation (Band A) [1]	Sensitivity ΔOD/MIN (Band A) [1]	ΔOD @ Saturation (Band B) [1]	Sensitivity ΔOD/MIN (Band B) [1]	Bleach Rate T 1/2 [1] [min]	λ MAX Vis (Band A) [2] [nm]	λ MAX Vis (Band B) [2] [nm]	Relative ΔOD at Saturation (rating) [3]	Structure (SMILES)
0.60	0.18 ΔOD/MIN	0.59	0.23 ΔOD/MIN	3.4	477	597	102	COc1ccc(C2(c3ccc(N4CCOCC4)cc3)C=Cc3c4c(c5cc(OC)c(OC)cc5c3O2)-c2ccccc2C4(C)C)cc1 (stereo not drawn) [Example 9, 3-(4-methoxyphenyl)-3-(4-morpholinophenyl)-6,7-dimethoxy-13,13-dimethyl-3H,13H-indeno[2,1-f]naphtho[1,2-b]pyran]
0.41	0.20 ΔOD/MIN	0.50	0.28 ΔOD/MIN	2.17	500	615	82	COc1ccc(C2(c3ccc(N(C)C)cc3)C=Cc3c4c(c5cc(OC)c(OC)cc5c3O2)-c2ccccc2C4(C)C)cc1 (stereo not drawn) [Example 10, 3-(4-methoxyphenyl)-3-(4-dimethylaminophenyl)-6,7-dimethoxy-13,13-dimethyl-3H,13H-indeno[2,1-f]naphtho[1,2-b]pyran]
0.37	0.29 ΔOD/MIN	0.22	0.18 ΔOD/MIN	1.27	457	579	168	CCCCC1(O)c2ccccc2-c2c1c1c(c3cc(OC)c(OC)cc23)OC(c2ccc(OC)cc2)(c2ccc(OC)cc2)C=C1 (stereo not drawn) [Example 15, 3,3-di(4-methoxyphenyl)-6,7-dimethoxy-13-hydroxy-13-butyl-3H,13H-indeno[2,1,-f]naphtho[1,2-b]pyran]

The next lines start with the compound.

Structure (SMILES)	ΔOD @ Saturation (Band A) [1]	Sensitivity ΔOD/MIN (Band A) [1]	ΔOD @ Saturation (Band B) [1]	Sensitivity ΔOD/MIN (Band B) [1]	Bleach Rate T 1/2 [1] [min]	λ MAX Vis (Band A) [2] [nm]	λ MAX Vis (Band B) [2] [nm]	Relative ΔOD at Saturation (rating) [3]
COc1ccc(C2(c3ccc(N4CCOCC4)cc3)C=Cc3c4c(c5cc(OC)c(OC)cc5c3O2)-c2ccccc2C4c2ccccc2)cc1 (stereo not drawn) [Example 8, 3-(4-methoxyphenyl)-3-(4-morpholinophenyl)-6,7-dimethoxy-13-phenyl-3H, 13H-indeno[2,1-f]naphtho[1,2-b]pyran]	0.43	0.14 ΔOD/MIN	0.44	0.18 ΔOD/MIN	2.98	484	603	98
COc1ccc(C2(c3ccc(OC)cc3)C=Cc3c4c(c5c(OC)c(OC)c(OC)cc5c3O2)-c2ccccc2C4c2ccccc2)cc1 (stereo not drawn) [Example 11, 3,3-di(4-methoxyphenyl)-6,7,8-trimethoxy-13-phenyl-3H,13H-indeno[2,1-f]naphtho[1,2-b]pyran]	0.66	0.28 ΔOD/MIN	0.62	0.25 ΔOD/MIN	3.05	482	581	106
CCC1(O)c2cc(OC)c(OC)cc2-c2c1c1c(c3cc(OC)c(OC)cc23)OC(c2ccc(OC)cc2)(c2ccc(N3CCOCC3)cc2)C=C1 (stereo not drawn) [Example 12, 3-(4-methoxyphenyl)-3-(4-morpholinophenyl)-6,7,10,11-tetramethoxy-13-hydroxy-13-ethyl-3H,13H-indeno[2,1-f]naphtho[1,2-b]pyran]	0.46	0.26 ΔOD/MIN	0.43	0.27 ΔOD/MIN	2.17	480	632	106
CCCCC1(O)c2cc(OC)c(OC)cc2-c2c1c1c(c3cc(OC)c(OC)cc23)OC(c2ccc(OC)cc2)(c2ccc(N3CCOCC3)cc2)C=C1 (stereo not drawn) [Example 13, 3-(4-methoxyphenyl)-3-(4-morpholinophenyl)-6,7,10,11-tetramethoxy-13-hydroxy-13-butyl-3H,13H-indeno[2,1-f]naphtho[1,2-b]pyran]	0.39	0.27 ΔOD/MIN	0.37	0.25 ΔOD/MIN	1.42	482	634	105
CCC1(O)c2ccccc2-c2c1c1c(c3cc(OC)c(OC)cc23)OC(c2ccccc2)(c2ccc(N3CCOCC3)cc2)C=C1 (stereo not drawn) [Example 14, 3-(4-morpholinophenyl)-3-phenyl-6,7-dimethoxy-13-hydroxy-13-ethyl-3H,13H-indeno[2,1,-f]naphtho[1,2-b]pyran]	0.41	0.24 ΔOD/MIN	0.40	0.22 ΔOD/MIN	1.8	485	600	103
CCCCC1(O)c2ccccc2-c2c1c1c(c3cc(OC)c(OC)cc23)OC(c2ccccc2)(c2ccc(N3CCOCC3)cc2)C=C1 (stereo not drawn) [Example 16, 3-(4-morpholinophenyl)-3-phenyl-6,7-dimethoxy-13-hydroxy-13-butyl-3H,13H-indeno[2,1,-f]naphtho[1,2-b]pyran]	0.37	0.22 ΔOD/MIN	0.35	0.19 ΔOD/MIN	1.88	485	600	106
